For data set [1], the system named is shTCF4 cells. Kind of data set: Whole-cell current-clamp recordings (AP spiking, mAHP/sAHP) in shTCF4 (TCF4 knockdown) mPFC layer 2/3 pyramidal neurons, acute brain slices. In kind it is cell-based, rat. The note with it: N=8. As to the method: (§1) Pregnant Wistar rats were obtained from Charles River Laboratories, Inc., maintained by SoBran on a 12-hour light cycle and fed ad libitum. In utero electroporation was performed as previously described (Chen et al., 2014; Maher and Loturco, 2012a). Electroporation was performed on embryonic day 16 (E16) and gestation age was confirmed during surgery. All plasmids were used at a final concentration of 1.5 μg/μl, and the mPFC was targeted for transfection. Pregnant dams were returned to the same housing conditions after recovery from surgery, and after litters were born, transfected rats were used for experiments at days P18-24.
(§2) Acute brain slices were obtained from rats and mice as described previously (Maher and Loturco, 2012b). Briefly, P18-24 male and female animals were deeply anesthetized with isoflurane and transcardially perfused with ice-cold oxygenated (95% O2 and 5% CO2) dissecting buffer containing (in mM): 83 NaCl, 2.5 KCl, 1 NaH2PO4, 26.2 NaHCO3, 22 glucose, 72 sucrose, 0.5 CaCl2, and 3.3 MgCl2. Animals were humanly sacrificed and decapitated and the brains were rapidly removed and immersed in ice-cold oxygenated dissection buffer. Coronal slices (300 μm) were cut using a vibratome (Microm HM650V), incubated in dissection buffer for 30-45 minutes at 34° C., and then stored at room temperature. Slices were visualized using IR differential interference microscopy (DIC) (Olympus BX51WI) and a CCD camera (QICAM, QImaging). Individual layer 2/3 pyramidal cells expressing EGFP in rat brain slices were visualized with epifluorescent illumination and a 43× Olympus LUMPlanFLN (0.8 numerical aperture) objective.
(§3) For all experiments, artificial cerebrospinal fluid (ACSF) was oxygenated (95% O2 and 5% CO2) and contained in (in mM): 125 NaCl, 25 NaHCO3, 1.25 NaH2PO4, 3 KCl, 25 dextrose, 1 MgCl2, and 2 CaCl2, pH 7.3. Patch pipettes were fabricated from borosilicate glass (N51A, King Precision Glass, Inc.) to a resistance of 2-5 MΩ. For current- and voltage-clamp measurements, pipettes were filled with (in mM): 125 potassium gluconate, 10 HEPES, 4 Mg-ATP, 0.3 Na-GTP, 0.1 EGTA, 10 phosophocreatine, 0.05% biocytin, adjusted to pH 7.3 with KOH. For all experiments GABAa receptors were blocked with SR-95531 (Gabazine, 5 μM, Ascent Scientific). For AHP current experiments, synaptic currents were blocked with DL-2-amino-5-phosphopentanoic acid (D,L-AP5, 100 μM, Ascent Scientific), 2,3, dioxo-6-nitro-1,2,3,4, tetrahydrobenzo-quinoxaline-7-sulfonamide (NBQX, 10 μM) and SR-95531 (Gabazine, 5 μM, Ascent Scientific). Ca2+-activated currents were blocked with Tetraethylammonium chloride (TEA, 1 mM, Abcam), apamin (100 nM, Abcam), and carbachol (10 μM, Abcam). Current signals were recorded with either a Multiclamp 700A (Molecular Devices) or with an Axopatch 200B amplifier (Molecular Devices) and were filtered at 2 kHz using a built-in Bessel filter and digitized at 10 kHz. Voltage signals were filtered at 2 kHz and digitized at 10 kHz. Data were acquired using Axograph on a Dell PC. Data acquisition was terminated when series resistance was >15 MΩ. For voltage clamp recordings, pyramidal cells were held at −60 mV. No holding current was used for current-clamp recordings.
(§4) Axograph was used on a Macintosh computer for analysis. To measure spike frequency, EGFP-positive layer 2/3 neurons of the mPFC were injected with a 600 ms depolarizing current pulses ranging from 50 to 500 pA at 50 pA increments with an 10 s inter-trial interval. Each current pulse was measured in triplicate, and the number of resulting APs was averaged. For analysis of fAHP amplitude, the second and third current evoked spikes within the 600 ms pulse were measured. The fAHP potential was measured by subtracting the voltage at the peak of the fAHP from the threshold potential for spike initiation (slope of AP exceeds 50 mV/ms). The mAHP potential was measured at the peak of the AHP that followed the 600 ms current pulse. […]

For data set [2], the system named is shCon cells. Kind of data set: Whole-cell current-clamp recordings (AP spiking, mAHP/sAHP) in shCon (control shRNA) mPFC layer 2/3 pyramidal neurons, acute brain slices. In kind it is cell-based, rat. As to the method: as §1, §2, §3, §4
In data set [3] the target is KCNQ1 (Homo sapiens, UniProt P51787). To be noted: KCNQ1 antagonist; Towart et al., 2009; cited from earlier work.
For data set [4], the system named is AHP currents in EGFP+ cells expressing shCon or shTCF4. Kind of data set: Whole-cell voltage-clamp recordings of AHP currents with progressive pharmacological blockade. It is filed as cell-based, rat. The method, then: as §3, with “kHz.” for “kHz. Voltage signals were filtered at 2 kHz and digitized at 10 kHz. Data were acquired using Axograph on a Dell PC. Data acquisition was terminated when series resistance was >15 MΩ. For voltage clamp recordings, pyramidal cells were held at −60 mV. No holding current was used for current-clamp recordings.”

Data set [5] relates to TCF4 transcript. The data set is described as follows: qRT-PCR of TCF4 transcript after shRNA transfection of rat neuroblastoma cells. In kind it is cell-based. To be noted: transfected rat neuroblastoma cells; vs control shRNA; N=4. From the text:
To measure Tcf4 transcript expression across the lifespan in the rat, three cortical samples per age group, as well as cortical samples extracted from both genotypes of postnatal day 21 (p21) TCF4 mice to measure SCN10a and KCNQ1 expression, were separately flash frozen and homogenized in Trizol (Life Technologies). Aqueous phase was mixed with a 1:1 volume of 70% ethanol prior to purification using RNeasy mini columns treated with DNAse according to manufacturer's protocol (Qiagen). RNA samples were then reverse-transcribed to cDNA using the Quantscript Reverse Transcriptase kit (Qiagen). Amplification of cDNA was performed with iTaq SYBR Green Supermix (Bio-Rad) and TCF4, KCNQ1, and SCN10a primers were designed using with Primer 3 software (http://bioinfo.ut.ee/primer3-0.4.0/). End-point PCR followed by product sequencing, in addition to cDNA dilution series and melt curve analysis were used to verify primer design efficiency and specificity. Real time PCR was performed on the 7900HT Fast Real-Time PCR system (Applied Biosystems) and melt curve analysis was done for absolute quantification of primer efficiency. Data were expressed as fold change of gene of interest normalized to GAPDH expression using 2^delta delta Ct. […]
On the technique in general: Quantitative PCR measures a nucleic acid by following its amplification.

Data set [6] has as its system TCF4 protein. Kind of data set: Western blot of endogenous TCF4 protein after shRNA transfection of rat neuroblastoma cells. It is filed as cell-based. To be noted: transfected rat neuroblastoma cells; vs control shRNA; N=4. The method, then:
Rat neuroblastoma cells (B104) were cultured in Dulbecco's modified Eagle medium (DMEM) (Thermo Fisher) supplemented with 10% FBS, 100 U-100 μg/ml Penicillin-Streptomycin, 2 mM L-Glutamine, and 100 μm non-essential amino acids and maintained at 37° C. with 5% CO2. At a confluency of […], cells were co-transfected in 6 well plates using Lipofectamine 3000 (Thermo Fisher) with 0.5 μg PBR-GFP, a puromycin selection plasmid, and 2 μg shRNA or 2 μg CRISPR-Cas9 plasmids according to the manufacturer's protocol. Cells were selected with 500 ng/mL puromycin for 24 hours and were allowed to recover in growth medium lacking penicillin-streptomycin for 48 hours.
Rat neuroblastoma cells were washed in cold PBS, scraped from plates and pelleted by centrifugation at 4000 rpm for 5 minutes at 4° C. […]
30 μg of total protein were used from each sample; protein was subjected to gel electrophoresis using a 4-12% gradient Novex Bis-Tris Bolt SDS-PAGE gel. […] Bound antibody was detected using IRdye donkey anti-goat 680 (1:10,000, Li-Cor) and IRdye donkey anti-rabbit 800 (1:10,000, Li-Cor). Antibody detection and quantification were carried out using the LI-COR Odyssey infrared system and software.
In general terms: Immunoblotting shows a protein as a band on a membrane.

Entries after “also recorded” stand apart in the source; their conditions may differ.

As a reminder, the IC50 is the point on the concentration scale where inhibition reaches its midpoint.

With `CC(C)(Oc1ccc(Cl)cc1)C(=O)NC1C2CC3CC1CC(NS(C)(=O)=O)(C3)C2` (stereo not drawn) [JNJ303, 2-(4-Chlorophenoxy)-2-methyl-N-[5-[(methylsulfonyl)amino]tricyclo[3.3.1.13,7]dec-2-yl]-propanamide], the “effect on the frequency of APs generated in response to current injections” value in data set [1] (JNJ303 1 μM, shTCF4 cells, significant for current pulses 250-500 pA, p=0.0084) is listed as “effective at increasing the spiking frequency; also recorded: significantly increased firing frequency”. Besides, the “amplitude of the sAHP after application” value in data set [1] (JNJ303, shTCF4 cells, before −2.31±0.46 mV, p=0.041) was −1.71±0.33 mV; in data set [2] (JNJ303, before −4.67±0.48 mV, N=9, p=0.20), −4.22±0.57. The “amplitude of the mAHP after application” value in data set [1] (JNJ303, shTCF4 cells, before −3.52±0.58 mV, p<0.044) is −2.77±0.36 mV; in data set [2] (JNJ303, before −5.93±0.58 mV, N=9, not significant), −5.61±0.74 mV. In addition, the “effect on the frequency of APs (spiking)” value in data set [2] (JNJ303, N=8, p=0.11) is “neither UCL2077 (p=0.35) nor JNJ303 (p=0.11) had an effect on spiking”. For the same compound, the IC50 in data set [3] was 64 nM.
As to `CC[N+](CC)(CC)CC.[Cl-]` [TEA, Tetraethylammonium chloride], in data set [4] (TEA 1 mM bath application, shCon and shTCF4 cells), the “effect on the fAHP current” value was “blockade of the fAHP current”.
`C[N+](C)(C)CCOC(N)=O` [carbachol]: the “effect on action potential frequency” value in data set [1] (carbachol (10 μM) bath application, shTCF4 neurons, 600 ms pulses 50 to 500 pA, p=0.0075) is “effective at rescuing action potential frequency”. Further, the “peak amplitude of the mAHP after application” value in data set [1] (carbachol, shTCF4 cells, before −6.78±0.70, p=0.0051) is −4.23±0.60 mV; in data set [2] (carbachol, before −4.21±0.52, N=19, p=0.0008), −2.32±0.31 mV. Besides, the effect on spiking result in data set [2] (carbachol bath application, effective for current injections 200-500 pA, N=12, p=0.0038) was “increased spiking”. In addition, in data set [2] (carbachol, before −3.13±0.45, N=19, p=0.0004), the “amplitude of the sAHP after application” value is listed as −1.10±0.32 mV. The “effect on the sAHP (voltage clamp)” value in data set [4] (carbachol, shTCF4 cells, average voltage-clamp traces) is “block the sAHP”.
As to “shTCF4: shRNA construct targeting the open reading frame of rat TCF4, AGAAACTAGACGACGACAA (SEQ ID NO:2) (the letters are possibly those of the target site; listed as Homo sapiens)”, the “TCF4 transcript (qRT-PCR)” value in data set [5] was determined as 0.55±0.15 fold change from control. Further, the “endogenous TCF4 protein (Western blot)” value in data set [6] is 1.9±2.0 % of control.
The like results for “shTCF4_2: shRNA construct targeting the 3′ UTR of rat TCF4, GTTTCAGCATTCCCAATTA (SEQ ID NO:1) (the letters are possibly those of the target site)” were, in that order, 0.47±0.11 fold change from control and 36.4±4.3 % of control.

The values above are taken from patent US11221329B2, “Treatment of neurological and neurodevelopmental diseases and disorders associated with aberrant ion channel expression and activity” (LIEBER INSTITUTE FOR BRAIN DEVELOPMENT, priority 2015, dated 2022).
